Entries after “also recorded” stand apart in the source; their conditions may differ. Non-standard residues stand in square brackets, D forms with d. No end group written: not given here. hSer = N[C@@H](CCO)C(=O)O

One experiment deals with Staphylococccus aureus. The experiment can be described thus: agar diffusion assay (zone of inhibition). Format: cell-based. To be noted: S. aureus. The procedure: (§1) The antimicrobial activity of the indolicidin analogs was determined using microbicidal or microbial inhibition assays. The indolicidin analogs initially were characterized using a microbial inhibition method, including a modified plate diffusion assay (Hultmark et al., EMBO J. 2:571-573 (1983); Lehrer et al., J. Immunol. Meth. 137:167-173 (1991), each of which is incorporated herein by reference).
(§2) Nutrient-containing agar (or agarose) plates were seeded with a selected target microorganism and peptide samples (5-10 μl) were placed into small wells formed in the solid medium. Following an initial incubation interval of 1 to 4 hr, the well-containing layer was overlayed with enriched (2× normal) solid medium in order to support microbial growth outside the perimeter of inhibition. After overnight incubation at 30° C. to 37° C., the antimicrobial activity was quantitated by measuring the clear zones around each well (zone of inhibition).
With “[H2N-]Ile-Leu-Pro-Trp-Lys-Trp-Pro-Trp-Trp-Pro-Trp-Arg-Arg-Hse (ILPWKWPWWPWRRX; C-terminal homoserine; MOD_RES (14) Xaa is homoserine (Hse).) [Indol(1-13)-Hse]”, the “antimicrobial activity (growth inhibition, zone of inhibition)” value is reported as “antimicrobial activity equivalent to that of synthesized Indol 1-13”.

The next experiment deals with microorganisms. Kind of experiment: antimicrobial activity, microbicidal or microbial inhibition assays (overall statements). In kind it is cell-based. To be noted: overall statement, microorganism not specified. The procedure: as §1, §2
Microbicidal activity was measured by first incubating the target organism with an indolicidin analog in an aqueous suspension, then plating the suspension to quantitate surviving microorganisms. Cultures were grown to mid log phase in an appropriate medium, harvested, washed, and resuspended to 1-2×10^7 colony forming units (CFU) per ml. To conserve peptide, the incubation volume usually was 0.05 ml, with the final cell concentration being 1-2×10^6CFU/ml. Peptide stock solutions, usually made up in 0.01% acetic acid, were diluted in the incubation buffer to a final concentration of 1 μg/ml to 100 μg/ml, and the incubation was initiated by addition of an appropriate volume of the bacterial or fungal stock suspension to the prewarmed (37° C.) peptide-buffer mixture. At timed intervals, 50 μl or 100 μl samples were removed and diluted serially, then plated on nutrient-containing agar plates. Killing activity was quantitated by determining the reduction in CFU relative to appropriate control incubations.
As for “Indol 1-13/F-Hse: Indol 1-13/F peptide with a carboxy terminal homoserine, produced by cyanogen bromide cleavage (ILPFKFPFFPFRR[hSer])”, the antimicrobial activity entry is recorded as “have antimicrobial activity”.
On the same count and under the same terms, with “Leu-Pro-Phe-Lys-Phe-Pro-Phe-Phe-Pro-Phe-Arg-Arg-NH2 (LPFKFPFFPFRR-NH2) [Indol 2-13/F]” the entry was “exhibits antimicrobial activity”; with “Leu-Pro-Trp-Lys-Trp-Pro-Trp-Trp-Pro-Trp-Arg-Arg-NH2 (LPWKWPWWPWRR-NH2) [Indol 2-13]”, “broad spectrum antimicrobial activity; also recorded: exhibits antimicrobial activity”; with “Lys-Trp-Pro-Trp-Trp-Pro-Trp-Arg-Arg-NH2 (KWPWWPWRR-NH2) [Indol 5-13]”, “broad spectrum antimicrobial activity; also recorded: exhibits antimicrobial activity”.
Take “Pro-Trp-Lys-Trp-Pro-Trp-Trp-Pro-Trp-Arg-Arg-NH2 (PWKWPWWPWRR-NH2) [Indol 3-13]”: the antimicrobial activity result was “broad spectrum antimicrobial activity; also recorded: exhibits antimicrobial activity”.
The same measure, in the same setting: the result for “Trp-Lys-Trp-Pro-Trp-Trp-Pro-Trp-Arg-Arg-NH2 (WKWPWWPWRR-NH2) [Indol 4-13]” reads “broad spectrum antimicrobial activity; also recorded: exhibits antimicrobial activity”; that for “[H2N-]Ile-Leu-Pro-Trp-Lys-Trp-Pro-Trp-Trp-Pro-Trp-Arg-Arg-Hse (ILPWKWPWWPWRRX; C-terminal homoserine; MOD_RES (14) Xaa is homoserine (Hse).) [Indol(1-13)-Hse]”, “have antimicrobial activity”.

For a further experiment, the system named is fungi such as Cryptococcus. Kind of experiment: antimicrobial activity against fungi.
Conditions: not given
Format: cell-based.
Consider “Lys-Trp-Pro-Trp-Trp-Pro-Trp-Arg-NH2 (KWPWWPWR-NH2) [Indol 5-12]”, for which the “antimicrobial activity against fungi such as Cryptococcus” value is reported as “substantial antimicrobial activity”.
“Pro-Trp-Lys-Trp-Pro-Trp-Trp-Pro-Trp-Arg-NH2 (PWKWPWWPWR-NH2) [Indol 3-12]”: the “antimicrobial activity against fungi such as Cryptococcus” value was “substantial antimicrobial activity”.
Still for that read-out and setting: with “Trp-Lys-Trp-Pro-Trp-Trp-Pro-Trp-Arg-NH2 (WKWPWWPWR-NH2) [Indol 4-12]” the entry was “substantial antimicrobial activity”; with “Trp-Pro-Trp-Trp-Pro-Trp-Arg-NH2 (WPWWPWR-NH2) [Indol 6-12]”, “substantial antimicrobial activity”.

The record behind these values is US6524585B1, “Indolicidin analogs and methods of using same” (The Regents of the University of California, priority 1998, dated 2003).
